#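 Following 48 hours of exposure in 96-well plates, responses at five concentrations were used to interpolate endpoints linearly. GI50 is the concentration that inhibits growth by half. TGI: total growth inhibition.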
# Key:
# Test in all cases: growth of human tumour cells (NCI), 48 h
# 786-0 renal = test system: 786-0 renal
# A498 renal = test system: A498 renal
# A549 NSCLC = test system: A549 NSCLC
# ACHN renal = test system: ACHN renal
# BT-549 breast = test system: BT-549 breast
# CAKI-1 renal = test system: CAKI-1 renal
# CCRF-CEM leukemia = test system: CCRF-CEM leukemia
# COLO 205 colon = test system: COLO 205 colon
# DU-145 prostate = test system: DU-145 prostate
# EKVX NSCLC = test system: EKVX NSCLC
# HCT-116 colon = test system: HCT-116 colon
# HCT-15 colon = test system: HCT-15 colon
# HL-60(TB) leukemia = test system: HL-60(TB) leukemia
# HOP-62 NSCLC = test system: HOP-62 NSCLC
# HOP-92 NSCLC = test system: HOP-92 NSCLC
# HS 578T breast = test system: HS 578T breast
# HT29 colon = test system: HT29 colon
# IGROV1 ovarian = test system: IGROV1 ovarian
# KM12 colon = test system: KM12 colon
# LOX IMVI melanoma = test system: LOX IMVI melanoma
# M14 melanoma = test system: M14 melanoma
# MALME-3M melanoma = test system: MALME-3M melanoma
# MCF7 breast = test system: MCF7 breast
# MDA-MB-231 breast = test system: MDA-MB-231 breast
# MDA-MB-435 = test system: MDA-MB-435
# MOLT-4 leukemia = test system: MOLT-4 leukemia
# NCI-H226 lung = test system: NCI-H226 lung
# NCI-H23 lung = test system: NCI-H23 lung
# NCI-H460 lung = test system: NCI-H460 lung
# NCI-H522 lung = test system: NCI-H522 lung
# NCI/ADR-RES ovarian = test system: NCI/ADR-RES ovarian
# OVCAR-3 ovarian = test system: OVCAR-3 ovarian
# OVCAR-4 ovarian = test system: OVCAR-4 ovarian
# OVCAR-5 ovarian = test system: OVCAR-5 ovarian
# OVCAR-8 ovarian = test system: OVCAR-8 ovarian
# PC-3 prostate = test system: PC-3 prostate
# RPMI-8226 leukemia = test system: RPMI-8226 leukemia
# RXF 393 renal = test system: RXF 393 renal
# SF-268 CNS = test system: SF-268 CNS
# SF-295 CNS = test system: SF-295 CNS
# SF-539 CNS = test system: SF-539 CNS
# SK-MEL-2 melanoma = test system: SK-MEL-2 melanoma
# SK-OV-3 ovarian = test system: SK-OV-3 ovarian
# SNB-19 CNS = test system: SNB-19 CNS
# SNB-75 CNS = test system: SNB-75 CNS
# SR leukemia = test system: SR leukemia
# SW-620 colon = test system: SW-620 colon
# T-47D breast = test system: T-47D breast
# TK-10 renal = test system: TK-10 renal
# U251 CNS = test system: U251 CNS
# UACC-257 melanoma = test system: UACC-257 melanoma
# UO-31 renal = test system: UO-31 renal
# K-562 leukemia = test system: K-562 leukemia
# SK-MEL-28 melanoma = test system: SK-MEL-28 melanoma
# SK-MEL-5 melanoma = test system: SK-MEL-5 melanoma
# SN12C renal = test system: SN12C renal
smiles,measurement,setting,value
COc1cc2nc3cc([N+](=O)[O-])ccc3c(NCCCNCCO)c2cc1OC,GI50,786-0 renal,0.239 µM
same,TGI,786-0 renal,0.896 µM
same,GI50,A498 renal,0.214 µM
same,TGI,A498 renal,0.527 µM
same,GI50,A549 NSCLC,0.255 µM
same,TGI,A549 NSCLC,0.635 µM
same,GI50,ACHN renal,0.256 µM
same,TGI,ACHN renal,0.914 µM
same,GI50,BT-549 breast,0.297 µM
same,TGI,BT-549 breast,0.962 µM
same,GI50,CAKI-1 renal,2.62 µM
same,TGI,CAKI-1 renal,16.7 µM
same,GI50,CCRF-CEM leukemia,0.211 µM
same,TGI,CCRF-CEM leukemia,1.41 µM
same,GI50,COLO 205 colon,0.162 µM
same,TGI,COLO 205 colon,0.351 µM
same,GI50,DU-145 prostate,0.194 µM
same,TGI,DU-145 prostate,0.645 µM
same,GI50,EKVX NSCLC,0.353 µM
same,TGI,EKVX NSCLC,4.63 µM
same,GI50,HCT-116 colon,0.115 µM
same,TGI,HCT-116 colon,0.385 µM
same,GI50,HCT-15 colon,3.59 µM
same,TGI,HCT-15 colon,19.5 µM
same,GI50,HL-60(TB) leukemia,0.463 µM
same,TGI,HL-60(TB) leukemia,4.32 µM
same,GI50,HOP-62 NSCLC,0.146 µM
same,TGI,HOP-62 NSCLC,0.422 µM
same,GI50,HOP-92 NSCLC,0.148 µM
same,TGI,HOP-92 NSCLC,0.438 µM
same,GI50,HS 578T breast,0.184 µM
same,TGI,HS 578T breast,0.612 µM
same,GI50,HT29 colon,0.212 µM
same,TGI,HT29 colon,0.569 µM
same,GI50,IGROV1 ovarian,0.225 µM
same,TGI,IGROV1 ovarian,0.672 µM
same,GI50,KM12 colon,0.285 µM
same,TGI,KM12 colon,0.843 µM
same,GI50,LOX IMVI melanoma,0.243 µM
same,TGI,LOX IMVI melanoma,0.664 µM
same,GI50,M14 melanoma,0.205 µM
same,TGI,M14 melanoma,0.437 µM
same,GI50,MALME-3M melanoma,0.189 µM
same,TGI,MALME-3M melanoma,0.359 µM
same,GI50,MCF7 breast,0.12 µM
same,TGI,MCF7 breast,0.626 µM
same,GI50,MDA-MB-231 breast,0.13 µM
same,TGI,MDA-MB-231 breast,0.374 µM
same,GI50,MDA-MB-435,0.179 µM
same,TGI,MDA-MB-435,0.336 µM
same,GI50,MOLT-4 leukemia,0.244 µM
same,TGI,MOLT-4 leukemia,5.4 µM
same,GI50,NCI-H226 lung,0.196 µM
same,TGI,NCI-H226 lung,0.505 µM
same,GI50,NCI-H23 lung,0.143 µM
same,TGI,NCI-H23 lung,0.616 µM
same,GI50,NCI-H460 lung,0.264 µM
same,TGI,NCI-H460 lung,0.624 µM
same,GI50,NCI-H522 lung,0.041 µM
same,TGI,NCI-H522 lung,0.213 µM
same,GI50,NCI/ADR-RES ovarian,31.4 µM
same,TGI,NCI/ADR-RES ovarian,> 100 µM
same,GI50,OVCAR-3 ovarian,0.244 µM
same,TGI,OVCAR-3 ovarian,0.622 µM
same,GI50,OVCAR-4 ovarian,0.114 µM
same,TGI,OVCAR-4 ovarian,0.385 µM
same,GI50,OVCAR-5 ovarian,0.22 µM
same,TGI,OVCAR-5 ovarian,0.899 µM
same,GI50,OVCAR-8 ovarian,0.202 µM
same,TGI,OVCAR-8 ovarian,0.721 µM
same,GI50,PC-3 prostate,0.213 µM
same,TGI,PC-3 prostate,0.483 µM
same,GI50,RPMI-8226 leukemia,0.567 µM
same,TGI,RPMI-8226 leukemia,4.34 µM
same,GI50,RXF 393 renal,0.186 µM
same,TGI,RXF 393 renal,0.473 µM
same,GI50,SF-268 CNS,0.126 µM
same,TGI,SF-268 CNS,0.478 µM
same,GI50,SF-295 CNS,0.182 µM
same,TGI,SF-295 CNS,0.604 µM
same,GI50,SF-539 CNS,0.191 µM
same,TGI,SF-539 CNS,0.478 µM
same,GI50,SK-MEL-2 melanoma,0.187 µM
same,TGI,SK-MEL-2 melanoma,0.389 µM
same,GI50,SK-OV-3 ovarian,0.265 µM
same,TGI,SK-OV-3 ovarian,0.711 µM
same,GI50,SNB-19 CNS,0.137 µM
same,TGI,SNB-19 CNS,0.495 µM
same,GI50,SNB-75 CNS,0.128 µM
same,TGI,SNB-75 CNS,0.26 µM
same,GI50,SR leukemia,0.238 µM
same,TGI,SR leukemia,1.71 µM
same,GI50,SW-620 colon,0.21 µM
same,TGI,SW-620 colon,1.03 µM
same,GI50,T-47D breast,0.205 µM
same,TGI,T-47D breast,0.531 µM
same,GI50,TK-10 renal,0.276 µM
same,TGI,TK-10 renal,0.923 µM
same,GI50,U251 CNS,0.149 µM
same,TGI,U251 CNS,0.433 µM
same,GI50,UACC-257 melanoma,0.342 µM
same,TGI,UACC-257 melanoma,0.951 µM
same,GI50,UO-31 renal,2.15 µM
same,TGI,UO-31 renal,14.2 µM
CCOC(=O)c1c(C)n(Cc2ccc(Cl)cc2Cl)c2c1c(CN(C)C)c(O)c1[nH]cnc12,GI50,786-0 renal,20.1 µM
same,TGI,786-0 renal,41.4 µM
same,GI50,A498 renal,20 µM
same,TGI,A498 renal,35 µM
same,GI50,A549 NSCLC,15.9 µM
same,TGI,A549 NSCLC,32.5 µM
same,GI50,ACHN renal,15.4 µM
same,TGI,ACHN renal,28.7 µM
same,GI50,BT-549 breast,23.6 µM
same,TGI,BT-549 breast,48.5 µM
same,GI50,CAKI-1 renal,18.4 µM
same,TGI,CAKI-1 renal,37.9 µM
same,GI50,CCRF-CEM leukemia,2.37 µM
same,TGI,CCRF-CEM leukemia,8.18 µM
same,GI50,COLO 205 colon,20.1 µM
same,TGI,COLO 205 colon,37.7 µM
same,GI50,DU-145 prostate,17.2 µM
same,TGI,DU-145 prostate,30.9 µM
same,GI50,EKVX NSCLC,22.5 µM
same,TGI,EKVX NSCLC,42.9 µM
same,GI50,HCT-116 colon,19 µM
same,TGI,HCT-116 colon,33 µM
same,GI50,HCT-15 colon,15.5 µM
same,TGI,HCT-15 colon,28.9 µM
same,GI50,HL-60(TB) leukemia,2.01 µM
same,TGI,HL-60(TB) leukemia,8.33 µM
same,GI50,HOP-62 NSCLC,12.8 µM
same,TGI,HOP-62 NSCLC,29.5 µM
same,GI50,HOP-92 NSCLC,2.74 µM
same,TGI,HOP-92 NSCLC,13.3 µM
same,GI50,HS 578T breast,29.1 µM
same,TGI,HS 578T breast,81.8 µM
same,GI50,HT29 colon,18 µM
same,TGI,HT29 colon,31.8 µM
same,GI50,IGROV1 ovarian,17.1 µM
same,TGI,IGROV1 ovarian,31.5 µM
same,GI50,K-562 leukemia,3.22 µM
same,TGI,K-562 leukemia,15.5 µM
same,GI50,KM12 colon,17.8 µM
same,TGI,KM12 colon,35.8 µM
same,GI50,LOX IMVI melanoma,15.7 µM
same,TGI,LOX IMVI melanoma,29.1 µM
same,GI50,M14 melanoma,24.2 µM
same,TGI,M14 melanoma,43.9 µM
same,GI50,MALME-3M melanoma,21.2 µM
same,TGI,MALME-3M melanoma,42.9 µM
same,GI50,MDA-MB-231 breast,16.3 µM
same,TGI,MDA-MB-231 breast,31.9 µM
same,GI50,MDA-MB-435,23.6 µM
same,TGI,MDA-MB-435,51.1 µM
same,GI50,MOLT-4 leukemia,0.908 µM
same,TGI,MOLT-4 leukemia,4.52 µM
same,GI50,NCI-H226 lung,17.8 µM
same,TGI,NCI-H226 lung,33.4 µM
same,GI50,NCI-H23 lung,0.271 µM
same,TGI,NCI-H23 lung,5.95 µM
same,GI50,NCI-H460 lung,15.3 µM
same,TGI,NCI-H460 lung,28.7 µM
same,GI50,NCI-H522 lung,17.1 µM
same,TGI,NCI-H522 lung,33.4 µM
same,GI50,OVCAR-3 ovarian,17.3 µM
same,TGI,OVCAR-3 ovarian,33.5 µM
same,GI50,OVCAR-4 ovarian,16.7 µM
same,TGI,OVCAR-4 ovarian,85.7 µM
same,GI50,OVCAR-8 ovarian,15.1 µM
same,TGI,OVCAR-8 ovarian,28.3 µM
same,GI50,RPMI-8226 leukemia,7.95 µM
same,TGI,RPMI-8226 leukemia,22.1 µM
same,GI50,RXF 393 renal,14.7 µM
same,TGI,RXF 393 renal,28.7 µM
same,GI50,SF-268 CNS,15.1 µM
same,TGI,SF-268 CNS,28.3 µM
same,GI50,SF-295 CNS,28.1 µM
same,TGI,SF-295 CNS,65 µM
same,GI50,SF-539 CNS,20.2 µM
same,TGI,SF-539 CNS,36.9 µM
same,GI50,SK-MEL-2 melanoma,19.9 µM
same,TGI,SK-MEL-2 melanoma,39.8 µM
same,GI50,SK-MEL-28 melanoma,20.9 µM
same,TGI,SK-MEL-28 melanoma,41 µM
same,GI50,SK-MEL-5 melanoma,17.2 µM
same,TGI,SK-MEL-5 melanoma,30.9 µM
same,GI50,SK-OV-3 ovarian,27.3 µM
same,TGI,SK-OV-3 ovarian,43.6 µM
same,GI50,SN12C renal,15.1 µM
same,TGI,SN12C renal,28.6 µM
same,GI50,SNB-19 CNS,18.4 µM
same,TGI,SNB-19 CNS,32.3 µM
same,GI50,SNB-75 CNS,3.55 µM
same,TGI,SNB-75 CNS,17 µM
same,GI50,SR leukemia,0.557 µM
same,TGI,SR leukemia,4.76 µM
same,GI50,SW-620 colon,20.1 µM
same,TGI,SW-620 colon,34.3 µM
same,GI50,T-47D breast,3.55 µM
same,TGI,T-47D breast,15.2 µM
same,GI50,TK-10 renal,22.7 µM
same,TGI,TK-10 renal,39.1 µM
same,GI50,U251 CNS,14.8 µM
same,TGI,U251 CNS,27.9 µM
same,GI50,UACC-257 melanoma,20.5 µM
same,TGI,UACC-257 melanoma,39.5 µM
same,GI50,UO-31 renal,18.9 µM
same,TGI,UO-31 renal,36.5 µM
